From paper PMC11219871, “Epigenetic-based differentiation therapy for Acute Myeloid Leukemia” (Nature Communications, 2024)
Values joined by “and” are separate entries in the source; they are usually repeats but may differ in a detail not shown here. Identical values can stand only once.

Tests used:
Format in all cases: cell-based, human
[1] = system: HL-60; assay: Differentiation-apoptosis assay, CD11b / annexin-V / Sytox Green / myeloid markers flow cytometry; parameters: Cell viability (%): concentration or dose not given beside the values; CD11b levels: unit not given here
In short: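 HL-60 cells were stained for the myeloid differentiation marker CD11b, with annexin-V and Sytox Green marking apoptosis and cell death. Cells were washed in PBS and resuspended at 1 × 10^6 cells/mL in binding buffer; marker staining of 1 million cells was for 30 min at room temperature in the dark, followed by red-cell lysis. Readout was flow cytometry.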

[2] = system: MOLM-13; assay: as above; parameters: Cell viability (%): concentration or dose not given beside the values; CD11b levels: unit not given here
In short: (§1)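 Cells washed in PBS, resuspended at 1 × 10^6 cells/mL in binding buffer and stained with APC-CD11b and FITC annexin-V for 15 min at room temperature in the dark, then read by flow cytometry. Other runs used a CD13/HLA-DR/CD14 antibody panel, 30 min staining, then red-cell lysis and washes.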

[3] = system: MV4-11; assay: as above; parameters: Cell viability (%): concentration or dose not given beside the values; CD11b levels: unit not given here
In short: as §1

[4] = system: primary AML patient samples; assay: Differentiation assay, CD11b flow cytometry in primary samples; settings: for CD11b-positive cells (%): daily 48 h
Procedure: Next, the cells were washed twice with phosphate-buffered saline (PBS) and resuspended in 1X Binding Buffer at a concentration of 1 × 10^6 cells/mL. An 8-µL aliquot of APC-CD11b (BD Pharmingen, Franklin Lakes, NJ, USA) and 1 µL of FITC annexin-V (AV) (BD Pharmingen, Franklin Lakes, NJ, USA) antibodies were added and incubated for 15 min at room temperature in the dark. Finally, after the addition of 400 µL of 1X Binding Buffer to each tube, samples were collected on a BD FACSCanto flow cytometer (Becton Dickinson, San Jose, CA, USA) and analyzed using FlowJo software.
Peripheral blood (PB) specimens were obtained from preliminarily diagnosed AML patients who had not received any treatment before specimens were collected. All patients gave informed consent for their participation in this study, which was approved by the Clinical Research Ethics Committee of Clínica Universidad de Navarra. Written informed consent was obtained from each participant. PB was mixed with an ammonium chloride-potassium (ACK) buffer lysis (0.15 mol/L NH4Cl, 10 mmol/L KHCO3, 0.1 mmol/L ethylenediaminetetraacetic acid, pH 7.2) at a 1:2 volume ratio by gentle inversion, incubated for 10 min and centrifuged at 200 g for 10 min. The cell pellet was washed twice with PBS and finally resuspended in EGM2 medium (Cambrex Bioscience, Walkersville, MD). EGM2 contains 2% fetal calf serum, hydrocortisone, heparin, antibiotics, epidermal growth factor, human fibroblast growth factor, insulin-like growth factor, vascular endothelial growth factor, and ascorbic acid. The cells were plated at 1 × 10^6 cells/mL and treated daily with 200 and 500 nM of CM-444 and CM-1758 for 48 h. Next, the differentiation assay was performed as described above.

[5] = HL-60, 48 h treatment, replicates 1-3 (Suppl. Fig. 5A)
[6] = HL-60, daily treatment, time 0 days, replicates 1-3 (Figure 2B)
[7] = HL-60, daily treatment, time 2 days, replicates 1-3 (Figure 2B)
[8] = HL-60, daily treatment, time 4 days, replicates 1-3 (Figure 2B)
[9] = HL-60, daily treatment, time 6 days, replicates 1-3 (Figure 2B)
[10] = HL-60, daily treatment, time 8 days, replicates 1-3 (Figure 2B)
[11] = MOLM-13, 48 h treatment, replicates 1-3 (Suppl. Fig. 5A)
[12] = MOLM-13, daily treatment, time 0 days
[13] = MOLM-13, daily treatment, time 2 days
[14] = MOLM-13, daily treatment, time 4 days
[15] = MOLM-13, daily treatment, time 6 days
[16] = MOLM-13, daily treatment, time 8 days
[17] = MV4-11, 48 h treatment, replicates 1-3 (Suppl. Fig. 5A)
[18] = MV4-11, daily treatment, time 0 days
[19] = MV4-11, daily treatment, time 2 days
[20] = MV4-11, daily treatment, time 4 days
[21] = MV4-11, daily treatment, time 6 days

`COc1cc2nc(-c3cc(C)oc3C)cc(NCC3CCN(c4ncc(C(=O)NO)cn4)CC3)c2cc1OC` [CM-1758, 2-[4-[[[2-(2,5-dimethyl-3-furyl)-6,7-dimethoxy-4-quinolyl]amino]methyl] -1-piperidyl]pyrimidine-5-carbohydroxamic acid] was tested, and the “percentage of CD11b” value ([1]; HL-60, 270 nM CM-444 or 300 nM CM-1758 daily for 4 days, before injection) was over 90%, the “CD11b (%)” value ([1]; HL-60, 48 h) was 71.2% and the “CD13 (%)” value ([1]; HL-60, 48 h) was 100%. The “CD14 (%)” value ([1]; HL-60, 48 h) was 18.9%, the “HLA-DR (%)” value ([1]; HL-60, 48 h) was 12.2% and the “CD11b (%)” value [1, 5] was 65.4% and 71.1% and 68.4%. For the same compound, the “Cell viability (%)” value [1, 5] was 82.8% and 73.6% and 69.5%, the “differentiation level (CD11b)” value ([1]; HL-60, after 6–8 days of treatment) was about 90% and the “Annexin V (%) Replicate 1” value ([1]; HL-60, daily 25% GI50, 48 h) was 0.26%. For the same compound, the “Annexin V (%) Replicate 2” value ([1]; HL-60, daily 25% GI50, 48 h) was 0.17%, the “Annexin V (%) Replicate 3” value ([1]; HL-60, daily 25% GI50, 48 h) was 0.14% and the “CD11b (%) Replicate 1” value ([1]; HL-60, daily 25% GI50, 48 h) was 55.36%. For the same compound, the “CD11b (%) Replicate 2” value ([1]; HL-60, daily 25% GI50, 48 h) was 68.41%, the “CD11b (%) Replicate 3” value ([1]; HL-60, daily 25% GI50, 48 h) was 67.15% and the “Annexin-V (%)” value [1, 6] was 0% and 4.96% and 3.21%. The “CD11b (%)” value [1, 6] was 13.33% and 12.5% and 10.8%, the “Annexin-V (%)” value [1, 7] was 5.66% and 3.51% and 4.98% and the “CD11b (%)” value [1, 7] was 74.44% and 64.2% and 68.7%. The “Annexin-V (%)” value [1, 8] was 0% and 4.07% and 5.87%, the “CD11b (%)” value [1, 8] was 86.57% and 79.2% and 77.3% and the “Annexin-V (%)” value [1, 9] was 5.76% and 2.68% and 3.98%. For the same compound, the “CD11b (%)” value [1, 9] was 94.42% and 89.2% and 90.5%, the “Annexin-V (%)” value [1, 10] was 0% and 5.21% and 6.98% and the “CD11b (%)” value [1, 10] was 96% and 92.9% and 94.7%. The “CD11b (%)” value ([1]; HL-60 cell line, replicates 1-3 (Figure 2A)) was 81.73% and 89.6% and 92.1%, the CD11b levels ([1]; HL-60 treated daily for 48 h, replicates (Fig 6D)) was 61.2 and 70.4 and 75.9 and the “CD11b (%)” value ([2]; MOLM-13, 48 h) was 93.0%. For the same compound, the “CD13 (%)” value ([2]; MOLM-13, 48 h) was 54.8%, the “CD14 (%)” value ([2]; MOLM-13, 48 h) was 35.6% and the “HLA-DR (%)” value ([2]; MOLM-13, 48 h) was 27.9%. The “CD11b (%)” value [2, 11] was 93.5% and 87.6% and 86.0%, the “Cell viability (%)” value [2, 11] was 71.1% and 73.4% and 72.7% and the “differentiation level (CD11b)” value ([2]; MOLM-13, after 6–8 days of treatment) was about 90%. For the same compound, the CD11b levels ([2]; MOLM-13, daily treatment for 48 h, replicates 1-3 (Suppl. Fig. 9A)) was 61.5 and 58.4 and 65.3, the “Annexin-V (%)” value [2, 12] was 4.46% and 6.55% and 4.89% and the “CD11b (%)” value [2, 12] was 6.62% and 4.5% and 6.9%. The “Annexin-V (%)” value [2, 13] was 11.4% and 10.2% and 9.87%, the “CD11b (%)” value [2, 13] was 73% and 68.5% and 65.7% and the “Annexin-V (%)” value [2, 14] was 23.3% and 19.7% and 17.2%. The “CD11b (%)” value [2, 14] was 83.3% and 80.2% and 78.3%, the “Annexin-V (%)” value [2, 15] was 23.9% and 24.2% and 20.6% and the “CD11b (%)” value [2, 15] was 89.9% and 85.1% and 83.1%. For the same compound, the “Annexin-V (%)” value [2, 16] was 29.4% and 27.5% and 25.4%, the “CD11b (%)” value [2, 16] was 91.9% and 90.1% and 92.4% and the “CD11b (%)” value ([2]; MOLM-13 cell line, replicates 1-3 (Figure 2A)) was 70.54% and 69.2% and 63%. The “CD11b (%)” value ([3]; MV4-11, 48 h) was 57.9%, the “CD13 (%)” value ([3]; MV4-11, 48 h) was 98.1% and the “CD14 (%)” value ([3]; MV4-11, 48 h) was 56.2%. For the same compound, the “HLA-DR (%)” value ([3]; MV4-11, 48 h) was 38.4%, the “CD11b (%)” value [3, 17] was 47.1% and 53.2% and 55.4% and the “Cell viability (%)” value [3, 17] was 80.4% and 85.9% and 86.75%. The “differentiation level (CD11b)” value ([3]; MV4-11, after 6–8 days of treatment) was about 90%, the CD11b levels ([3]; MV4-11, daily treatment for 48 h, replicates 1-3 (Suppl. Fig. 9A)) was 37.8 and 40.7 and 46.2 and the “Annexin-V (%)” value [3, 18] was 5.32% and 4.14% and 5.2%. The “CD11b (%)” value [3, 18] was 11.1% and 6.62% and 5.25%, the “Annexin-V (%)” value [3, 19] was 7.65% and 8.98% and 10.24% and the “CD11b (%)” value [3, 19] was 28.2% and 20.4% and 30.4%. For the same compound, the “Annexin-V (%)” value [3, 20] was 26.3% and 27.9% and 28.6%, the “CD11b (%)” value [3, 20] was 44.3% and 46.2% and 46.6% and the “Annexin-V (%)” value [3, 21] was 19.6% and 21.2% and 20.7%. For the same compound, the “CD11b (%)” value [3, 21] was 76% and 75.1% and 74.8%, the “CD11b (%)” value ([3]; MV4-11 cell line, replicates 1-3 (Figure 2A)) was 38.46% and 40.4% and 45.7% and the “CD11b (%)” value ([4]; primary AML patient sample 1 (Figure 2C)) was 43.21%. The “CD11b (%)” value ([4]; primary AML patient sample 2 (Figure 2C)) was 30.14%, the “CD11b (%)” value ([4]; primary AML patient sample 3 (Figure 2C)) was 23.69% and the “CD11b (%)” value ([4]; primary AML patient sample 4 (Figure 2C)) was 38.45%. For the same compound, the “CD11b (%)” value ([4]; primary AML patient sample 5 (Figure 2C)) was 30.14%, the “CD11b (%)” value ([4]; primary AML patient sample 6 (Figure 2C)) was 35.24% and the “CD11b (%)” value ([4]; primary AML patient sample 7 (Figure 2C)) was 35.47%. The “CD11b (%)” value ([4]; primary AML patient sample 8 (Figure 2C)) was 25.49%, the “CD11b-positive cells (%)” value ([4]; sample AML-1, 200 nM) was 30.6% and the “CD11b-positive cells (%)” value ([4]; sample AML-1, 500 nM) was 43.2%. For the same compound, the “CD11b-positive cells (%)” value ([4]; sample AML-2, 200 nM) was 15.2%, the “CD11b-positive cells (%)” value ([4]; sample AML-2, 500 nM) was 30.1% and the “CD11b-positive cells (%)” value ([4]; sample AML-3, 200 nM) was 15.5%. The “CD11b-positive cells (%)” value ([4]; sample AML-3, 500 nM) was 23.7%, the “CD11b-positive cells (%)” value ([4]; sample AML-4, 200 nM) was 21.9% and the “CD11b-positive cells (%)” value ([4]; sample AML-4, 500 nM) was 38.4%. The “CD11b-positive cells (%)” value ([4]; sample AML-5, 200 nM) was 19.2%, the “CD11b-positive cells (%)” value ([4]; sample AML-5, 500 nM) was 30.1% and the “CD11b-positive cells (%)” value ([4]; sample AML-6, 200 nM) was 27.2%. The “CD11b-positive cells (%)” value ([4]; sample AML-6, 500 nM) was 35.2%, the “CD11b-positive cells (%)” value ([4]; sample AML-7, 200 nM) was 30.1% and the “CD11b-positive cells (%)” value ([4]; sample AML-7, 500 nM) was 35.5%. For the same compound, the “CD11b-positive cells (%)” value ([4]; sample AML-8, 200 nM) was 16.2% and the “CD11b-positive cells (%)” value ([4]; sample AML-8, 500 nM) was 25.5%.
